Tests used:
Format in all cases: cell-based
human fibroblasts [1] = test: Intracellular ATP production by cultivated human fibroblasts (chemiluminescence-based assay); conditions: resveratrol 1 μM, betaine 1 mM or mixture; for ATP (μM per cell) Mean value: 120 min incubation, mean of 4 measurements; for ATP Increase (%): with respect to ATP level in untreated cells, 120 min
Experimental: Human fibroblasts were cultured at 37° C. in wet atmosphere with 5% CO2, on MEM supplemented with glucose, serum and glutamine. A solution containing trans-resveratrol and/or betaine is added to the culture medium:
The primary fibroblast cultures are incubated for 120 min with resveratrol at a final concentration of 1 μM, betaine at a concentration of 1 mM or a mixture of the two.
The cell viability is measured after incubation by fluorescence. The intracellular ATP concentration is measured by a chemiluminescence-based assay; the mean of 4 measurements is taken.
The intracellular ATP concentrations are expressed in μM of ATP per viable cell and percent of ATP increase is calculated with respect to the ATP level in untreated cells.

human fibroblasts [2] = test: Mitochondrial mass of FK866-treated human fibroblasts (Nonyl Acridine Orange probe, flow cytometry); conditions: for Effect of treatment against FK866 on mitochondrial mass (in words): fibroblasts treated with FK866; for Mitochondrial mass Increase (%): vs FK866 2.5 nM non treated
Experimental: Human fibroblasts were cultured at 37° C. in wet atmosphere with 5% CO2, on MEM supplemented with glucose, serum and glutamine. The cells are treated with a chemical agent (FK866) in the presence or absence of the following compounds: Trans-resveratrol and Betaine. Agent FK866 reduces the cell mitochondrial mass, thereby mimicking one of the signs of ageing.
Under these conditions, the ability of the active ingredient to increase the mitochondrial mass is assessed.
After 24 h treatment, the mitochondrial mass is therefore measured using the Nonyl Acridine Orange (NAO, Invitrogen) probe which fluoresces at 533 nm. The cell viability can be measured by DAPI staining. A flow cytometry analysis is conducted with a FACS LSRII and the results analysed by FlowJo software.

Col1A1 = Col1A1 gene expression in cutaneous fibroblasts (quantitative real-time PCR); conditions: 24 h, resveratrol 4 μM, betaine 5 mM or both; for Relative expression of Col1A1 Mean value: relative to untreated (ΔΔCt); for Relative expression of Col1A1 Increase (%): vs untreated
Experimental: Cutaneous fibroblasts were cultured for 24 h with resveratrol, betaine or mixtures of the two compounds.
For the gene expression analysis, the total RNAs were extracted from the fibroblast cultures and the expression measured by quantitative real-time PCR. RNA extraction was carried out using an RNeasy Mini Kit (Qiagen). The total RNAs were used for the cDNA synthesis using the iScript cDNA synthesis Kit (Biorad). The PCR reactions were conducted using the mix LightCycler® 480 SYBR Green I Master (Roche). To compare the relative expressions, the Δ ΔCt method was used. The relative expression of the gene of interest is represented by the expression variation compared with the untreated samples.

[3] = in presence of FK866 2.5 nM, 24 h, betaine 5 mM, resveratrol 25 μM or both
[4] = 24 h, betaine 5 mM, resveratrol 25 μM or both

SMILES	ATP (μM per cell) Mean value (human fibroblasts [1]) [μM per cell]	ATP Increase (%) (human fibroblasts [1])	Effect of treatment against FK866 on mitochondrial mass (in words) (human fibroblasts [2])	Mitochondrial mass (fluorescence units) Mean (human fibroblasts [2]; [3]) [fluorescence units]	Mitochondrial mass Increase (%) (human fibroblasts [2]; [4])	Relative expression of Col1A1 Mean value (Col1A1)	Relative expression of Col1A1 Increase (%) (Col1A1)	Mitochondrial mass Decrease (%) (human fibroblasts [2]; FK866 2.5 nM alone vs basal, 24 h)	Mitochondrial mass (fluorescence units) Mean (human fibroblasts [2]; FK866 2.5 nM alone, 24 h treatment) [fluorescence units]	Effect of FK866 on mitochondrial mass of fibroblasts (in words) (human fibroblasts [2]; FK866 alone)
C[N+](C)(C)CC(=O)[O-] [Betaine, trimethylglycine]	0.080	20	protects against the effects of FK866	1574	19	1.28	28	–	–	–
O=C(/C=C/c1cccnc1)NCCCCC1CCN(C(=O)c2ccccc2)CC1 [FK866, reference compound]	–	–	–	–	–	–	–	10	1326	decreases the mitochondrial mass
Oc1ccc(C=Cc2cc(O)cc(O)c2)cc1 [Resveratrol, 3,5,4′-trihydroxystilbene]	0.086	28	protects against the effects of FK866	2285	72	1.22	22	–	–	–

Reference: patent US20200046617A1, “Composition For Combating The Signs Of Ageing Of The Skin And Hair And Nails” (TOMCAT INTERNATIONAL LIMITED, priority 2017, published 2020)
